Results published in US8765705B2, “Oligonucleotides inhibiting cellular migration” (Centre National de la Recherche Scientifique, priority 2009, dated 2014).
“Also recorded” adds a separate entry of the source. d = 2'-deoxy (DNA); r = 2'-OH (RNA)

How the values were obtained:
TSP1 mRNA = TSP1 mRNA level in C4-2 cells, real-time RT-PCR normalized to cyclophilin A; format: cell-based, human
Method: (§1) LNCaP and C4-2 cells were grown in RMPI containing 10% fetal calf serum, PC-3 cells in DMEM containing 10% fetal calf serum. The Hiperfect reagent (Qiagen, Courtaboeuf, France) was used to transfect cells in 24 wells plates with the indicated siRNAs (10 nM) as recommended by the manufacturer. A metabolic activity assay (WST1, Roche Diagnostics, Meylan France) was used to measure cell proliferation. To mimic hypoxia, cells were grown in the presence of 300 μM cobalt chloride for 48 h. For hypoxic conditions, cells were cultured at 37° C. with 5% CO2, 94% N2 and 1% O2 in a hypoxic incubator (Binder GmbH, Tuttligen, France).
(§2) Total RNA was isolated using TRIzol reagent (Invitrogen, Cergy Pontoise, France). RNA were retrotranscribed using a High capacity cDNA Reverse Transcription Kit (Applied Biosystems, Courtaboeuf, France). cDNA was quantified by real time PCR using the Power SYBR® Green PCR Master Mix (Applied Biosystems, Courtaboeuf, France). Human Cyclophilin A was used as an internal control. The sequences of the PCR primers are indicated in the supplementary table 2.

TSP1 [1] = test: TSP1 secretion in the culture medium of C4-2 cells (western blotting); format: cell-based, human; conditions: 2 h treatment
Method: FIG. 2B represents TSP1 secretion in the cell culture medium by C4-2 cells treated for 2 h by vehicle (left) or thapsigargin (1 μM) (right). The secreted TSP1 is measured by western blotting in the cell culture medium. FIG. 2D represents TSP1 secretion in the cell culture medium by C4-2 cells treated for 2 h by vehicle or camphor at the indicated doses. The secreted TSP1 is measured by western blotting in the cell culture medium. FIG. 3D represents Western blot detection of TSP1 in the culture medium of C4-2 cells transfected with cont- or TSP1-siRNA 48 h after transfection.

C4-2 cells [2] = test: Intracellular calcium concentration, Fura-2 calcium imaging; format: cell-based, human; conditions: 300 μM
Method: Fluorescence imaging was carried out in Hank's balanced salt solution (HBSS) containing 142 mM NaCl, 5.6 mM KCl, 1 mM MgCl2, 2 mM CaCl2, 0.34 mM Na2HPO4, 0.44 mM KH2PO4, 10 mM HEPES, and 5.6 mM glucose. Cytosolic calcium concentration was measured using Fura-2 loaded cells (2 μM) as previously described (Mariot et al., 2002). The intracellular calcium concentration was derived from the ratio of the fluorescence intensities for each of the excitation wavelengths (F340/F380) and from the Grynkiewicz equation (Grynkiewicz et al., 1985).

TRPV3 mRNA = TRPV3 mRNA level in C4-2 cells, real-time RT-PCR; format: cell-based, human; conditions: 48 h, 300 μM
Method: as §1, §2

TSP1 [3] = test: TSP1 expression in PC3 cells exposed to CoCl2; format: cell-based, human
Method: FIG. 4G represents the induction of VEGF (grey) and TSP1 (black) mRNA levels normalized to cyclophilin A levels in PC3 cells grown for the indicated periods in cobalt chloride as compared to the respective mRNA levels in control medium at the same time point.
FIG. 4H represents TSP1 immunodetection in PC3 cells grown for 48 h in control conditions (N) or in the presence of 300 μM CoCl2 to mimic hypoxia (H).
as §1

TSP1 [4] = test: TSP1 protein expression in C4-2 cells (indirect immunofluorescence); format: cell-based, human; conditions: for TSP1 protein level: C4-2 cells transfected with siRNA (10 nM), 48 h after transfection
Method: FIG. […]
as §1

C4-2 cells [5] = test: Migration assay, modified Boyden chamber, C4-2 cells; format: cell-based, human; conditions: siRNA-transfected cells, towards fresh medium
Method: The cell migration capacity can be measured in vitro using a modified Boyden Chamber. Boyden Chamber consists of two compartments separated by a permeable membrane. Cells are placed in the upper chamber and the chemotactic factors in the lower chamber. Cells migrating through the membrane are counted.
The migration capacity was measured using a modified Boyden Chamber. Cells (40,000) were seeded in RPMI 1% FBS in the upper part of a cell culture-chamber-insert system separated from the lower chamber by a 8 μm PET membrane (BD Biosciences, Le Pont de Claix, France). RPMI 10% FBS, or conditioned medium was added in the lower compartment. Eighteen hours later, non migrating cells in the upper compartment were scrapped off using a cotton swab. Cells on the lower side of the membrane were fixed with methanol at −20° C. and stained with Hoechst 33258 (Sigma-Aldrich, Saint-Quentin Fallavier, France). Membranes were then excised, mounted on a glass side with Glycergel (DAKO) and cells counted.

[6] = tested on: TLR3, TLR7, IL6, IL12b, IFNβ, IFNγ, and IP10; test: Induction of interferon or inflammatory cytokine genes in the spleen of nude mice, real time RT-PCR; conditions: five hours after one i.p. injection of 4 mg/kg in PBS
Method: The mRNA level of the indicated genes, normalized to cyclophilin A, was quantified by real time RT-PCR in the spleen.
All the injections were carried out with a dose of 4 mg/kg siRNA diluted in PBS. Five hours after injection, mRNAs coding several genes involved in innate immune response or in inflammation were quantified by quantitative real time RT-PCT.

C4-2 cells [7] = test: Cell proliferation, metabolic activity assay (WST1); format: cell-based, human; conditions: C4-2 cells transfected with siRNA
Method: as §1

C4-2 cells [8] = test: Apoptosis, enzymatic activity of caspases 3 and 7; format: cell-based, human; conditions: for effect on apoptosis: C4-2 cells transfected with siRNA; for enzymatic activity of caspases 3 and 7 versus control: C4-2 cells, 48 h after transfection
Method: FIG. 1F represents the enzymatic activity of caspases 3 and 7 measured 48 h after transfection of C4-2 cells with the TSP1a- or TSP1b-siRNA.

[9] = C4-2 cells transfected with siRNA (10 nM), 2 days after transfection

For `CC12CCC(CC1=O)C2(C)C` (stereo not drawn) [camphor, reference compound], the “TSP1 mRNA level” value (TSP1 mRNA; C4-2 cells, 6 h treatment) was “dose dependent increase” and the “TSP1 secretion into the culture medium” value (TSP1 [1]) was “stimulated”.

With `[Cl][Co][Cl]` [cobalt chloride] the “TSP1 mRNA level” value (TSP1 mRNA; C4-2 cells, 48 h, 300 μM) was “strongly induced”, the “intracellular calcium concentration, resting level” value (C4-2 cells [2]; 48 h) was “increased over two fold” and the “intracellular calcium concentration, resting level” value (C4-2 cells [2]; after 30 min) was “not modified”. For the same compound, the “TRPV3 mRNA level” value (TRPV3 mRNA) was “strongly induced”, the “TSP1 expression at the mRNA level” value (TSP1 [3]) was “induced” and the “TSP1 expression at the protein level” value (TSP1 [3]; 48 h, 300 μM) was “induced”.

In the case of `C/C=C(/C)C(=O)O[C@H]1C(C)=C2[C@H]([C@@H]1OC(=O)CCCCCCC)[C@@](C)(OC(C)=O)C[C@H](OC(=O)CCC)[C@@]1(O)[C@H]2OC(=O)[C@@]1(C)O` [thapsigargin, reference compound], the “TSP1 in the cytosol” value (TSP1 [4]; C4-2 cells, 2 h treatment, 1 μM) is reported as “rapid depletion”.

“CD36: siRNA targeting CD36: UACAGACAGUUUUGGAUCUdTdT / AGAUCCAAAACUGUCUGUAdTdT (chain 1 UACAGACAGUUUUGGAUCUTT; chain 2 AGAUCCAAAACUGUCUGUATT; sugars from the 5' end r19 d2, backbone not given here)” was tested, and the “migration of C4-2 cells” value (C4-2 cells [5]) was “strongly reduced”.

Poly (I:C) [reference compound] was tested, and the “induction of TLR3, TLR7, IL6, IL12b, IFNβ, IFNγ, and IP10 mRNA” value [6] was “significant increase”.

With “TRPV2: siRNA targeting TRPV2: UAAGAGUCAACCUCAACUAdTdT / UAGUUGAGGUUGACUCUUAdTdT (chain 1 UAAGAGUCAACCUCAACUATT; chain 2 UAGUUGAGGUUGACUCUUATT; sugars from the 5' end r19 d2, backbone not given here)” the “TSP1 mRNA level” value (TSP1 mRNA; [9]) was “reduced”.

In the case of “TRPV6: siRNA targeting TRPV6: GGAAGACAGGCAAGAUCUCdTdT / GAGAUCUUGCCUGUCUUCCdTdT (chain 1 GGAAGACAGGCAAGAUCUCTT; chain 2 GAGAUCUUGCCUGUCUUCCTT; sugars from the 5' end r19 d2, backbone not given here)”, the “TSP1 mRNA level” value (TSP1 mRNA; [9]) is reported as “reduced”.

With “TSP1a-siRNA: Duplex CCUUGACAACAACGUGGUGdTdT / CACCACGUUGUUGUCAAGGdTdT targeting TSP1 mRNA, sequence conserved between human and mouse (sense CCUUGACAACAACGUGGUGTT; antisense CACCACGUUGUUGUCAAGGTT; sugars from the 5' end r19 d2, backbone not given here)” the “TSP1 mRNA level” value (TSP1 mRNA; [9]) was “significantly reduces”, the TSP1 protein level (TSP1 [4]) was “significantly reduces” and the “effect on cell proliferation” value (C4-2 cells [7]) was “no effect; also recorded: without affecting”. The effect on apoptosis (C4-2 cells [8]) was “no effect” and the “enzymatic activity of caspases 3 and 7 versus control” value (C4-2 cells [8]) was “not statistically different”.

In the case of “TSP1b-siRNA: Duplex UACCCGAGACGAUUGUAUGdTdT / CAUACAAUCGUCUCGGGUAdTdT targeting specifically the human TSP1 mRNA (sense UACCCGAGACGAUUGUAUGTT; antisense CAUACAAUCGUCUCGGGUATT; sugars from the 5' end r19 d2, backbone not given here)”, the “TSP1 mRNA level” value (TSP1 mRNA; [9]) is reported as “significantly reduces”, the TSP1 protein level (TSP1 [4]) is reported as “significantly reduces” and the “effect on cell proliferation” value (C4-2 cells [7]) is reported as “no effect; also recorded: without affecting”. The effect on apoptosis (C4-2 cells [8]) was “no effect” and the “enzymatic activity of caspases 3 and 7 versus control” value (C4-2 cells [8]) was “not statistically different”.

With “β3: siRNA targeting β3 integrin: GGAGAAUCUGCUGAAGGAUdTdT / AUCCUUCAGCAGAUUCUCCdTdT (chain 1 GGAGAAUCUGCUGAAGGAUTT; chain 2 AUCCUUCAGCAGAUUCUCCTT; sugars from the 5' end r19 d2, backbone not given here)” the “migration of C4-2 cells” value (C4-2 cells [5]) was “strongly reduced”.
